Legend:
Assay in all cases: relative viability (nuclei count vs DMSO), 5 days (fraction); higher = more cells survive
ALW-II-49-7 + Foretinib = compound: Cc1ccc(C(=O)Nc2cccc(C(F)(F)F)c2)cc1Nc1cncc(C(N)=O)c1 [ALW-II-49-7] + COc1cc2c(Oc3ccc(NC(=O)C4(C(=O)Nc5ccc(F)cc5)CC4)cc3F)ccnc2cc1OCCCN1CCOCC1 [Foretinib] (partner 0.25 µM)
Procedure, shortened: (§1)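 Nuclei were stained with Hoechst during a one-step fixation (final 0.05% Triton X-100, 1% formaldehyde, 1 ug/ml Hoechst) carried out 5 days after dosing, then counted on 4× images. The cells, lung cancer lines in 1536-well plates, had been dosed by pin tool the day after seeding with one drug alone or a fixed anchor-drug dose plus five library-drug doses (not always all listed) in √10 steps. Relative viability is the nuclei count in treated wells divided by that in vehicle wells, and each value is the median of duplicate plates.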

XMD13-2 + Palbociclib = compound: C1CC1C(=O)NC2=NNC3=C2C=CC(=C3)C4=CC(=CC=C4)C(=O)NC5CC5 [XMD13-2] + CC(=O)c1c(C)c2cnc(Nc3ccc(N4CCNCC4)cn3)nc2n(C2CCCC2)c1=O [Palbociclib] (partner 0.5 µM)
Procedure, shortened: as §1

Dasatinib + Crizotinib = compound: Cc1nc(Nc2ncc(C(=O)Nc3c(C)cccc3Cl)s2)cc(N2CCN(CCO)CC2)n1 [Dasatinib] + C[C@@H](Oc1cc(-c2cnn(C3CCNCC3)c2)cnc1N)c1c(Cl)ccc(F)c1Cl [Crizotinib] (partner 1 µM)
Procedure, shortened: as §1

XMD13-2 + Decitabine = compound: C1CC1C(=O)NC2=NNC3=C2C=CC(=C3)C4=CC(=CC=C4)C(=O)NC5CC5 [XMD13-2] + Nc1ncn([C@H]2C[C@H](O)[C@@H](CO)O2)c(=O)n1 [Decitabine] (partner 2 µM)
Procedure, shortened: as §1

Row | Cell Line | relative viability (ALW-II-49-7 + Foretinib; first compound 0.253 µM) | relative viability (ALW-II-49-7 + Foretinib; first compound 0.8 µM) | relative viability (ALW-II-49-7 + Foretinib; first compound 2.53 µM) | relative viability (ALW-II-49-7 + Foretinib; first compound 8 µM) | relative viability (XMD13-2 + Palbociclib; first compound 0.05 µM) | relative viability (XMD13-2 + Palbociclib; first compound 0.1581 µM) | relative viability (XMD13-2 + Palbociclib; first compound 0.5 µM) | relative viability (XMD13-2 + Palbociclib; first compound 1.581 µM) | relative viability (XMD13-2 + Palbociclib; first compound 5 µM) | relative viability (Dasatinib + Crizotinib; first compound 0.005 µM) | relative viability (Dasatinib + Crizotinib; first compound 0.01581 µM) | relative viability (Dasatinib + Crizotinib; first compound 0.05 µM) | relative viability (Dasatinib + Crizotinib; first compound 0.1581 µM) | relative viability (Dasatinib + Crizotinib; first compound 0.5 µM) | relative viability (XMD13-2 + Decitabine; first compound 0.05 µM) | relative viability (XMD13-2 + Decitabine; first compound 0.1581 µM) | relative viability (XMD13-2 + Decitabine; first compound 0.5 µM) | relative viability (XMD13-2 + Decitabine; first compound 1.581 µM) | relative viability (XMD13-2 + Decitabine; first compound 5 µM) | relative viability (ALW-II-49-7 + Foretinib; first compound 0.08 µM)
1 | 201T | 1.24 | 1.01 | 0.447 | 1.13 | 0.356 | 0.377 | 0.539 | 0.357 | 0.34 | 0.972 | 0.947 | 0.933 | 0.729 | 0.458 | 0.861 | 0.839 | 0.905 | 0.86 | 0.902 | –
2 | A549 | 0.92 | 0.78 | 0.961 | 0.824 | – | – | – | – | – | 0.563 | 0.642 | 0.415 | 0.264 | 0.131 | 0.307 | 0.233 | 0.289 | 0.247 | 0.24 | 0.918
3 | A-427 | 0.95 | 1.12 | 1.14 | 1.2 | 0.568 | 0.499 | 0.573 | – | 0.473 | 0.761 | 0.719 | 0.701 | 0.495 | 0.442 | 0.574 | 0.553 | 0.612 | – | 0.503 | 1.16
4 | ABC-1 | 1.11 | 1.14 | 0.863 | 1.42 | 0.72 | 0.606 | 0.78 | – | 0.556 | 0.929 | 0.856 | 0.699 | 0.586 | 0.367 | 1.13 | 1.33 | 1.24 | – | 1.11 | 0.959
5 | BEN | 0.756 | 0.768 | 0.752 | 0.692 | 0.462 | 0.508 | 0.492 | 0.489 | 0.468 | 0.706 | 0.397 | 0.493 | 0.378 | 0.332 | 0.803 | 0.705 | 0.719 | 0.648 | 0.705 | 0.829
6 | CAL-12T | 1.14 | 1.19 | 1.07 | 0.843 | 0.567 | 0.418 | 0.478 | 0.504 | 0.371 | 0.86 | 0.627 | 0.457 | 0.128 | 0.0903 | – | – | – | – | – | 1.11
7 | COR-L23 | 1.09 | 0.903 | 0.913 | 0.945 | 0.248 | 0.298 | 0.295 | 0.294 | 0.365 | 0.514 | 0.5 | 0.35 | 0.234 | 0.267 | 0.438 | 0.399 | 0.513 | 0.458 | 0.376 | 1.1
8 | COR-L 105 | 0.949 | 0.992 | 0.99 | 1.23 | 0.405 | 0.412 | 0.4 | 0.404 | 0.42 | 0.71 | 0.59 | 0.528 | 0.286 | 0.285 | 0.747 | 0.717 | 0.755 | 0.66 | 0.638 | 1.02
9 | Calu-6 | 0.832 | 0.912 | 0.832 | 0.805 | – | – | – | – | – | 0.701 | 0.618 | 0.519 | 0.341 | 0.344 | – | – | – | – | – | 0.914
10 | ChaGo-K-1 | 0.968 | 0.931 | 0.905 | 0.91 | 0.923 | 0.897 | 0.958 | 0.92 | 0.795 | 1.14 | 1.02 | 1 | 0.862 | 0.734 | 0.521 | 0.53 | 0.528 | 0.511 | 0.496 | 0.971
11 | EBC-1 | 0.11 | 0.098 | 0.0988 | 0.114 | – | – | – | – | – | 0.203 | 0.187 | 0.205 | 0.183 | 0.172 | – | – | – | – | – | 0.0976
12 | EKVX | 0.753 | 0.898 | 1.05 | 0.746 | 0.45 | 0.376 | 0.33 | – | 0.397 | 0.994 | 0.633 | 0.528 | 0.314 | 0.138 | 0.395 | 0.32 | 0.419 | – | 0.307 | 0.781
13 | EMC-BAC-2 | 1.04 | 0.989 | 0.885 | 0.878 | 0.558 | 0.519 | 0.536 | 0.497 | 0.47 | 0.754 | 0.516 | 0.425 | 0.247 | 0.221 | 1.09 | 0.967 | 0.997 | – | 0.878 | 0.968
14 | EPLC-272H | – | 0.712 | 0.643 | 0.917 | 0.314 | 0.344 | 0.329 | 0.279 | 0.317 | 0.99 | 0.765 | 0.787 | 0.537 | 0.326 | 0.363 | 0.391 | 0.485 | 0.339 | 0.314 | 0.665
15 | H3255 | 0.827 | 0.939 | 1.02 | 0.703 | 0.316 | 0.291 | 0.309 | 0.334 | 0.306 | 0.901 | 0.757 | 0.617 | 0.557 | 0.27 | 0.749 | 0.72 | 0.532 | – | 0.603 | 1.01
16 | HARA | 0.836 | 1.03 | 0.887 | 1.04 | 0.265 | 0.313 | 0.25 | 0.273 | 0.245 | 1.08 | 0.754 | 0.71 | 0.261 | 0.133 | 0.654 | 0.558 | 0.584 | 0.613 | 0.492 | 0.646
17 | HCC-15 | 1.1 | 1.03 | 0.96 | 1 | 0.798 | 0.684 | 0.803 | 0.709 | 0.594 | 0.873 | 0.699 | 0.743 | 0.514 | 0.489 | 0.768 | 0.652 | 0.725 | 0.598 | 0.627 | 1.08
18 | HCC-44 | – | – | – | – | 0.978 | 0.912 | 0.959 | 0.944 | 0.96 | 0.86 | 0.904 | 0.945 | 0.36 | 0.213 | 0.981 | 0.835 | 1.01 | 0.992 | 0.963 | –
